# Tests used:
# Kv1.2 = settings: ref [21],[22]; cited from earlier work
# Text: The Kv1.2 ion channel, a member of voltage-gated potassium channels, is encoded by the KCNA2 gene. Kv1.2 is predominantly expressed in the central nervous system (CNS) abundantly in the cerebellum, hippocampus, and cortex. It plays a crucial role in action potential propagation, neuronal excitability, and synaptic transmission. Gain-of-function (GOF) mutations in KCNA2 cause increased Kv1.2 activity, resulting in excessive potassium conductance leading to neuronal hyperpolarization, and impairing normal brain function. A decade ago, Kv1.2 emerged as a key factor ...
# hKv1.3 = target: T1, hKv1.3 (Homo sapiens, UniProt P22001); assay: cell-based; assay type: cell-based
# T1 construct: peripheral blood mononuclear cells (PBMCs) were isolated from the healthy donor’s blood; endogenous in cells
# T1 sequence (P22001 whole entry): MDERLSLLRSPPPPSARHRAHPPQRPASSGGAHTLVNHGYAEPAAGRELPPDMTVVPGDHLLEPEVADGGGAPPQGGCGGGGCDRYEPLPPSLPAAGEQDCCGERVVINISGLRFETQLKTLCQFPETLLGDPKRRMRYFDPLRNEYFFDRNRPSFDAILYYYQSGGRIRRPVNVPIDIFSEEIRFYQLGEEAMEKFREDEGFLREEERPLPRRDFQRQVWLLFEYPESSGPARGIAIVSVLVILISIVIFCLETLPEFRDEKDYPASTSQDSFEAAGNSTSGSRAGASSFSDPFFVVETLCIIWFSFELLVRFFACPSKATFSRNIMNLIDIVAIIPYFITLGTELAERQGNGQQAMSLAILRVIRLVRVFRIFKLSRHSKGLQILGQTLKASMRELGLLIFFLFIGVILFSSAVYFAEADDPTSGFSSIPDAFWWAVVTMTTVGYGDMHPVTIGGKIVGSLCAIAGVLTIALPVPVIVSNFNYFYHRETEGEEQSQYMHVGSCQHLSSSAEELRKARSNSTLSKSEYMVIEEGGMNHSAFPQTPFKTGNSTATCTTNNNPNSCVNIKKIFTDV
# Text: Therefore, we aimed to investigate the effects of Cvill6 and Cvill7 on voltage-gated K^+ ion channels. Among the tested ion channels there were four members from the Shaker-related human Kv1 family, hKv1.1, hKv1.2, hKv1.3, and hKv1.5 (Figure 3A–E), and one member of the human ether-a-go-go-related (hERG) cardiac K^+ channel hKv11.1 (hERG1, Figure 3F). For current recordings, Kv1.1, Kv1.2, and Kv1.5 were transiently expressed in CHO cells while for Kv11.1 a stable HEK293 cell line was used. To record Kv1.3 currents human peripheral T lymphocytes were activated with Phytohemagglutinin A (PHA) to boost Kv1.3 expression and Ca^2+-free intracellular solution to prevent the KCa3.1 channel opening. […] Appropriate voltage protocols were applied to record the K^+ currents from voltage-clamped cells in whole-cell configurations. Toxins were freshly dissolved in the bath solution supplemented with 0.1 mg/mL BSA and applied to the patched cells via a gravity-fed micro-perfusion system with an approximate flow rate of 200 µL/min.
# To avoid toxin adsorption onto the plastic surfaces of the perfusion system, 0.1 mg/mL of bovine serum albumin (BSA, Sigma-Aldrich, Budapest, Hungary) was also added into all bath solutions prior to the patch-clamp assay.
# Whole-cell currents were recorded using the patch-clamp technique in voltage-clamp mode, following standard protocols. […] Micropipettes were made from GC150F-7.5 borosilicate capillaries (Harvard Apparatus Co., Holliston, MA, USA) using a Sutter P2000 laser puller with tip resistance generally ranging from 3–6 MΩ in the bath solution. Only recordings with a leak current at the holding potential (Vh) of <10% of the peak current at the test potential were included in the data analysis. All recordings were performed at room temperature (20–25 °C). Control and test solutions were perfused to the cells via a gravity-driven micro-perfusion system and AutoMate Perfusion Pencil Multi-Barrel Manifold Tip (AutoMate Scientific, Berkeley, CA, USA), with an approximate flow rate of 200 µL/min, and the excess amount of bath solution was continuously removed from the recording chamber using vacuum suction.
# The duration of depolarization pulses was 15 ms for Kv1.3 and 50 ms for Kv1.1 and Kv1.5. However, for Kv1.2, 15–500 ms-long pulses were used to achieve the saturated peak current due to the variable activation kinetics of this channel. […] KCa2.2 and KCa3.1 currents were recorded by applying 150 ms-long voltage ramps to +50 mV from −120 mV every 10 s; the Vh was set to −85 mV.
# Before analysis, all current traces were digitally filtered using three-point boxcar smoothing and were corrected for ohmic leakage, only if required. […] Data points in the concentration–response curve represent the mean RCF values of three to six individual cells, with error bars denoting the standard error of the mean (SEM). The data points for each concentration were fitted using the Hill equation: RCF = IC50^H/(IC50^H + [toxin]^H), where IC50 is the dissociation constant, H represents the Hill coefficient, and [toxin] is the concentration of the toxin.
# To study the binding kinetics of Cvill toxins, the peak current during the application of toxin at time point t (It) was normalized to the peak current (I0) before the toxin exposure (Inorm = It/I0) and plotted as a function of time.
# hKv1.1 = target: T2, hKv1.1 (Homo sapiens, UniProt Q09470); assay: cell-based; assay type: cell-based
# T2 construct: host or cells: CHO cells, transient transfection (Lipofectamine 2000)
# T2 sequence (Q09470 whole entry): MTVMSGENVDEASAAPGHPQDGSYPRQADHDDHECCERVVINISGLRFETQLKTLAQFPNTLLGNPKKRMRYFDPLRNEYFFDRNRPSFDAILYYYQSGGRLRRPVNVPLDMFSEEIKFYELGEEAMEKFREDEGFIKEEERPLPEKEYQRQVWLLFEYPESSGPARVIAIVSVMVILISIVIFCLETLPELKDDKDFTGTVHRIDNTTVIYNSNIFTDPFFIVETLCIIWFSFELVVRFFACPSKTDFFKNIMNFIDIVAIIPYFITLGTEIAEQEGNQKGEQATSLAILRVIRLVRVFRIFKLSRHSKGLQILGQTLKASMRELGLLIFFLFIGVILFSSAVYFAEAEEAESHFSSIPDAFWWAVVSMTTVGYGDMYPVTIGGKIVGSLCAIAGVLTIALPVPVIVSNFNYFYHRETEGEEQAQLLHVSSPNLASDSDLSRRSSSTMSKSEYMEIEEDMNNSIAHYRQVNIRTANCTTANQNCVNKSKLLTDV
# Protocol: (§1) Chinese hamster ovary (CHO) cells (generously provided by Yosef Yarden, Weizmann Institute of Science, Rehovot, Israel) or human embryonic kidney (HEK293) cells were cultured and maintained in Dulbecco’s modified Eagle medium (DMEM, Thermo Fisher Scientific, Waltham, MA, USA) supplemented with 2 mM L-glutamine, 10% fetal bovine serum (FBS), 100 µg/mL streptomycin, and 100 U/mL penicillin-g (Sigma-Aldrich, Budapest, Hungary) following standard culturing conditions [52]. For transient expression of ion channels, CHO cells were transfected using the Lipofectamine 2000 kit (Invitrogen, Waltham, MA, USA) following the manufacturer’s instructions with plasmids encoding specific ion channels, including hKv1.1 (KCNA1 gene), hKv1.2 (KCNA2 gene), and hKv1.5 (KCNA5 gene) in a pCMV6-AC-GFP vector (OriGene Technologies), hKCa2.2 (KCNN2 gene) in a pCDN3 plasmid (for this transfection a GFP containing plasmid was co-transfected, courtesy of Bernard Attali, Tel Aviv University, Tel Aviv, Israel), and hKCa3.1 (KCNN4 gene) in a pEGFP-C1 vector (a kind gift by H. Wulff, University of California, Davis, CA, USA). […] Electrophysiological recordings were typically conducted 24 to 48 h after transfection.
# (§2) Whole-cell currents were recorded using the patch-clamp technique in voltage-clamp mode, following standard protocols [73]. […] Micropipettes were made from GC150F-7.5 borosilicate capillaries (Harvard Apparatus Co., Holliston, MA, USA) using a Sutter P2000 laser puller with tip resistance generally ranging from 3–6 MΩ in the bath solution. Only recordings with a leak current at the holding potential (Vh) of <10% of the peak current at the test potential were included in the data analysis. All recordings were performed at room temperature (20–25 °C). Control and test solutions were perfused to the cells via a gravity-driven micro-perfusion system and AutoMate Perfusion Pencil Multi-Barrel Manifold Tip (AutoMate Scientific, Berkeley, CA, USA), with an approximate flow rate of 200 µL/min, and the excess amount of bath solution was continuously removed from the recording chamber using vacuum suction.
# (§3) The duration of depolarization pulses was 15 ms for Kv1.3 and 50 ms for Kv1.1 and Kv1.5. However, for Kv1.2, 15–500 ms-long pulses were used to achieve the saturated peak current due to the variable activation kinetics of this channel [74].
# hKv1.5 = assay type: cell-based, human
# Protocol: Chinese hamster ovary (CHO) cells (generously provided by Yosef Yarden, Weizmann Institute of Science, Rehovot, Israel) or human embryonic kidney (HEK293) cells were cultured and maintained in Dulbecco’s modified Eagle medium (DMEM, Thermo Fisher Scientific, Waltham, MA, USA) supplemented with 2 mM L-glutamine, 10% fetal bovine serum (FBS), 100 µg/mL streptomycin, and 100 U/mL penicillin-g (Sigma-Aldrich, Budapest, Hungary) following standard culturing conditions [52]. For transient expression of ion channels, CHO cells were transfected using the Lipofectamine 2000 kit (Invitrogen, Waltham, MA, USA) following the manufacturer’s instructions with plasmids encoding specific ion channels, including hKv1.1 (KCNA1 gene), hKv1.2 (KCNA2 gene), and hKv1.5 (KCNA5 gene) in a pCMV6-AC-GFP vector (OriGene Technologies), hKCa2.2 (KCNN2 gene) in a pCDN3 plasmid (for this transfection a GFP containing plasmid was co-transfected, courtesy of Bernard Attali, Tel Aviv University, Tel Aviv, Israel), and hKCa3.1 (KCNN4 gene) in a pEGFP-C1 vector (a kind gift by H. Wulff, University of California, Davis, CA, USA). […] Electrophysiological recordings were typically conducted 24 to 48 h after transfection. […]
# Whole-cell currents were recorded using the patch-clamp technique in voltage-clamp mode, following standard protocols [73]. […]
# hKv1.2 = target: T3, hKv1.2 (Homo sapiens, UniProt P16389); assay: Whole-cell patch-clamp, hKv1.2 current in transiently transfected CHO cells; assay type: cell-based; settings: positive control
# T3 construct: host or cells: CHO cells, transient transfection (Lipofectamine 2000)
# T3 sequence (P16389 whole entry): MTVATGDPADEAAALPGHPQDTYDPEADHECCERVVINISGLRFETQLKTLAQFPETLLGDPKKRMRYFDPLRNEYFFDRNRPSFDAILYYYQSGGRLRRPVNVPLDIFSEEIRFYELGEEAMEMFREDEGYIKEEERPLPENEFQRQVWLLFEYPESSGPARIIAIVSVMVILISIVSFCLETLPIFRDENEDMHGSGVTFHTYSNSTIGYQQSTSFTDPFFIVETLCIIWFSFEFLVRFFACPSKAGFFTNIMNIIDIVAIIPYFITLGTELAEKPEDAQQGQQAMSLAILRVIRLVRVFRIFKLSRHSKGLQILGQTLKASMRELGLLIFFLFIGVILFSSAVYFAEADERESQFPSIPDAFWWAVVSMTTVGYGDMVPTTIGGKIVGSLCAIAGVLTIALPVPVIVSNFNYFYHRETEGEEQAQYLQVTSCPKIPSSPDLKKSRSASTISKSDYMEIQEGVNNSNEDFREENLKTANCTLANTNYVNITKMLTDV
# Protocol: as §1, §2, §3
molecule,measurement,setting,value
Nc1ccncc1 [4-aminopyridine],effect on gain-of-function defects in patients with KCNA2-related encephalopathy,Kv1.2,can mitigate the gain-of-function defects in patients
"CC[N+](CC)(CC)CC [TEA^+, tetraethylammonium chloride, reference compound]",inhibition of Kv1.3 by positive control,hKv1.3,fully reversible inhibitors
same,inhibition of Kv1.1 by positive control,hKv1.1,fully reversible inhibitors
same,inhibition of Kv1.5 by positive control,hKv1.5,fully reversible inhibitors
charybdotoxin [reference compound],inhibition of Kv1.2 by positive control,hKv1.2,fully reversible inhibitors
